Earlier results, collected in patent US20030220416A1, “Curable compositions with antimicrobial properties” (priority 1998, published 2003).
Read-outs that look alike come from different tables or passages of the source.

Assays:
[1] = tested on: bacteria; conditions: MDPB incorporated in experimental composites
[2] = tested on: S. mutans; conditions: MDPB incorporated in experimental composites
[3] = most of the compositions tested

Row | SMILES | zone of inhibition by the disk diffusion method [1] | attachment of S. mutans to surfaces of the restorative material [2] | water solubility (distilled water at 20° C.) [ppm] | water solubility (distilled water at 50° C.) [ppm] | release of the triclosan into the surrounding medium [3] [micrograms/ml]
1 | C=C(C)C(=O)OCCCCCCCCCCCC[n+]1ccccc1.[Br-] [MDPB, methacryloyloxydodecylpyridinium bromide] | no zone of inhibition was evident | reduced | – | – | –
2 | Oc1cc(Cl)ccc1Oc1ccc(Cl)cc1Cl [Triclosan, 2,4,4′-trichloro-2′hydroxydiphenyl ether] | – | – | 20 | 20 | 0.02
